Results as given in patent US5661144A, “Cephem derivatives with 3-substituted bis heterocycles” (Meiji Seika Kabushiki Kaisha, priority 1994, dated 1997).
Where a name gives a salt, the structure may show the parent alone.

How the values were obtained:
Assay in all cases: Antibacterial activity (MIC), conventional two-fold dilution method
Assay type in all cases: cell-based
C. freundii GN346/16 = conditions: Citrobacter freundii, 10^6 CFU/ml, Medium N, 35° C., 18 to 20 hours
Experimental: (§1) The test was carried out in the following manner: 10^6 CFU/ml of a bacterium to be tested was inoculated on a Medium N for disc susceptibility test (manufactured by Nissui Pharmaceutical Co., Ltd.), and cultivated at 35° C. for 18 to 20 hours.

E. coli NIHJ JC-2 = conditions: Escherichia coli, NIHJJC2, 10^6 CFU/ml, Medium N, 35° C., 18 to 20 hours
Experimental: as §1

E. faecalis W-73 = conditions: Enterococcus faecalis, W73, 10^6 CFU/ml, Medium N, 35° C., 18 to 20 hours
Experimental: as §1

K. pneumoniae PC1602 = conditions: Klebsiella pneumoniae, 10^6 CFU/ml, Medium N, 35° C., 18 to 20 hours
Experimental: as §1

M. morganii 1510/S-1 = conditions: Morganella morganii, 1510/S1, 10^6 CFU/ml, Medium N, 35° C., 18 to 20 hours
Experimental: as §1

P. auruginosa E-2 = conditions: 10^6 CFU/ml, Medium N, 35° C., 18 to 20 hours
Experimental: as §1

P. vulgaris GN76 = conditions: Proteus vulgaris, 10^6 CFU/ml, Medium N, 35° C., 18 to 20 hours
Experimental: as §1

R. cloacae G-0008 = conditions: 10^6 CFU/ml, Medium N, 35° C., 18 to 20 hours
Experimental: as §1

S. aureus 209P JC-1 = conditions: Staphylococcus aureus, 10^6 CFU/ml, Medium N, 35° C., 18 to 20 hours
Experimental: as §1

S. epidermidis ATCC14990 = conditions: Staphylococcus epidermidis, 10^6 CFU/ml, Medium N, 35° C., 18 to 20 hours
Experimental: as §1

S. marcescens No.1 = conditions: Serratia marcescens, 10^6 CFU/ml, Medium N, 35° C., 18 to 20 hours
Experimental: as §1

Row | MIC (C. freundii GN346/16) | MIC (E. coli NIHJ JC-2) | MIC (E. faecalis W-73) | MIC (K. pneumoniae PC1602) | MIC (M. morganii 1510/S-1) | MIC (P. auruginosa E-2) | MIC (P. vulgaris GN76) | MIC (R. cloacae G-0008) | MIC (S. aureus 209P JC-1) | MIC (S. epidermidis ATCC14990) | MIC (S. marcescens No.1) | SMILES
1 | 0.05 µg/mL | < 0.025 µg/mL | 12.5 µg/mL | 0.05 µg/mL | < 0.025 µg/mL | 12.5 µg/mL | 0.1 µg/mL | 0.05 µg/mL | 0.2 µg/mL | 0.1 µg/mL | 0.05 µg/mL | Nc1nc(C(=NOCF)C(=O)NC2C(=O)N3C(C(=O)[O-])=C(C=CC[n+]4cc5sccn5c4)CSC23)ns1 [Example 1, (6R, 7R)-7-[(Z)-2-(5-amino-1,2,4-thiadiazol-3-yl)-2-fluoromethoxyiminoacetamido]-3-[3-(imidazo[5,1-b]-thiazolium-6-yl)-1-propenyl]-3-cephem-4-carboxylate(internal salt)]
2 | 0.05 µg/mL | 0.05 µg/mL | 12.5 µg/mL | 0.05 µg/mL | < 0.025 µg/mL | 25 µg/mL | 0.1 µg/mL | 0.05 µg/mL | 0.2 µg/mL | 0.2 µg/mL | 0.05 µg/mL | Cc1csc2c[n+](CC=CC3=C(C(=O)[O-])N4C(=O)C(NC(=O)C(=NOCF)c5nsc(N)n5)C4SC3)cn12 [Example 2, (6R, 7R)-7-[(Z)-2-(5-amino-1,2,4-thiadiazol-3-yl)-2-fluoromethoxyiminoacetamido]-3-[3-(3-methylimidazo[5,1-b]thiazolium-6-yl)-1-propenyl]-3-cephem-4-carboxylate (internal salt)]
3 | 0.05 µg/mL | 0.05 µg/mL | 12.5 µg/mL | 0.05 µg/mL | < 0.025 µg/mL | 12.5 µg/mL | 0.1 µg/mL | 0.05 µg/mL | 0.2 µg/mL | 0.2 µg/mL | 0.05 µg/mL | NC(=O)c1csc2c[n+](CC=CC3=C(C(=O)[O-])N4C(=O)C(NC(=O)C(=NOCF)c5nsc(N)n5)C4SC3)cn12 [Example 3, (6R, 7R)-7-[(Z)-2-(5-amino-1,2,4-thiadiazol-3-yl)-2-fluoromethoxyiminoacetamido]-3-[3-(3-carbamoylimidazo [5,1-b]thiazolium-6-yl)-1-propenyl]-3-cephem-4-carboxylate (internal salt)]
4 | < 0.025 µg/mL | < 0.025 µg/mL | 12.5 µg/mL | < 0.025 µg/mL | < 0.025 µg/mL | 12.5 µg/mL | 0.1 µg/mL | 0.05 µg/mL | 0.39 µg/mL | 0.2 µg/mL | 0.05 µg/mL | Nc1nc(C(=NOCF)C(=O)NC2C(=O)N3C(C(=O)[O-])=C(C=CC[n+]4cc5sccn5c4CNC=O)CSC23)ns1 [Example 4, (6R, 7R)-7-[(Z)-2-(5-amino-1,2,4-thiadiazol-3-yl)-2-fluoromethoxyiminoacetamido]-3-[3-(5-formylaminomethylimidazo[5,1-b]thiazolium-6-yl]-1-propenyl]-3-cephem-4-carboxylate (internal salt)]
